Values quoted from earlier work as cited in patent publication US20240416337A1, “Quantitation of chemical, biological and biochemical analytes on a flow assay using a smartphone” (Real-Time Analyzers, Inc., priority 2023, published 2024).

Key:
[1] = blood compared with saliva
[2] = in vivo

Q: For C=CC[C@@H]1/C=C(\C)C[C@H](C)C[C@H](OC)[C@H]2O[C@@](O)(C(=O)C(=O)N3CCCC[C@H]3C(=O)O[C@H](/C(C)=C/[C@@H]3CC[C@@H](O)[C@H](OC)C3)[C@H](C)[C@@H](O)CC1=O)[C@H](C)C[C@@H]2OC [tacrolimus], which “ionization at physiological pH” value is on record?
A: does not ionize

Q: What about the “tacrolimus concentration in the blood” value [1] of the same compound?
A: modestly higher than in saliva

Q: What about the “passage through salivary glands into the oral cavity” value [2] of the same compound?
A: readily passes through salivary glands
